Results: the supplement of paper PMC13380429

How the values were obtained:
HepG2 [1] = assay: drug sensitivity score (DSS) for viability; higher = more toxic; extreme values may be limits of the assay; conditions: 72 h
Vero E6 [2] = assay: as above; conditions: 72 h
U2OS [3] = assay: as above; conditions: 72 h
Caco-2 [4] = assay: as above; conditions: 72 h
[5] = tested on: A549-ACE2 infected with SARS-CoV-2; assay: cell count relative to DMSO; higher = less toxic; conditions: 24 h
A549-ACE2 [6] = assay: drug-induced phospholipidosis relative to tamoxifen; higher = more phospholipidosis
HepG2 [7] = assay: cell viability relative to DMSO; higher = less toxic; conditions: 72 h
Vero E6 [8] = assay: as above; conditions: 72 h
U2OS [9] = assay: as above; conditions: 72 h
Caco-2 [10] = assay: as above; conditions: 72 h
[11] = tested on: A549-ACE2 infected with SARS-CoV-2; assay: SARS-CoV-2 infection rate relative to DMSO; higher = more infection; conditions: 24 h
A549-ACE2 [12] = assay: phospholipidosis EC50; higher = less potent phospholipidosis inducer
HepG2 [13] = assay: relative viability EC50 (midpoint between 100% and the lowest measured viability); higher = less toxic; conditions: 72 h
Vero E6 [14] = assay: as above; conditions: 72 h
U2OS [15] = assay: as above; conditions: 72 h
Caco-2 [16] = assay: as above; conditions: 72 h
[17] = tested on: A549-ACE2 infected with SARS-CoV-2; assay: morphology score (similarity to uninfected cells); higher = more like uninfected cells; conditions: 24 h
Calu-3 [18] = assay: drug sensitivity score (DSS) for viability; higher = more toxic; extreme values may be limits of the assay; conditions: 72 h
Calu-3 [19] = assay: cell viability relative to DMSO; higher = less toxic; conditions: 72 h
Calu-3 [20] = assay: relative viability EC50 (midpoint between 100% and the lowest measured viability); higher = less toxic; conditions: 72 h

O=C(c1ccc(Nc2nccc(-c3cc4ccccc4s3)n2)cc1)N1CCC(N2CCCC2)CC1 [IKK-16]
Conditions | drug sensitivity score | relative viability EC50 [nM]
Caco-2 [4] | 8.2 | –
Caco-2 [16] | – | 1640
HepG2 [1] | 7.7 | –
HepG2 [13] | – | 2100
U2OS [3] | 6.8 | –
U2OS [15] | – | 2480
Vero E6 [2] | 5.9 | –
Vero E6 [14] | – | 2980

Conditions | SARS-CoV-2 infection rate [%] | cell count [%] | cell viability [%] | morphology score | phospholipidosis EC50 [nM]
A549-ACE2 [12], 24 h | – | – | – | – | 1050
A549-ACE2 [12], 48 h | – | – | – | – | 1530
A549-ACE2 [12], 72 h | – | – | – | – | 1100
Caco-2 [10], 1 nM | – | – | 97.6 | – | –
Caco-2 [10], 10 nM | – | – | 102 | – | –
Caco-2 [10], 100 nM | – | – | 98.9 | – | –
Caco-2 [10], 1000 nM | – | – | 79.8 | – | –
Caco-2 [10], 10000 nM | – | – | 9.4 | – | –
HepG2 [7], 1 nM | – | – | 95.9 | – | –
HepG2 [7], 10 nM | – | – | 108 | – | –
HepG2 [7], 100 nM | – | – | 91.6 | – | –
HepG2 [7], 1000 nM | – | – | 86.9 | – | –
HepG2 [7], 10000 nM | – | – | -0.2 | – | –
U2OS [9], 1 nM | – | – | 97.4 | – | –
U2OS [9], 10 nM | – | – | 95.5 | – | –
U2OS [9], 100 nM | – | – | 97.6 | – | –
U2OS [9], 1000 nM | – | – | 91.7 | – | –
U2OS [9], 10000 nM | – | – | 0.8 | – | –
Vero E6 [8], 1 nM | – | – | 97.4 | – | –
Vero E6 [8], 10 nM | – | – | 99.5 | – | –
Vero E6 [8], 100 nM | – | – | 99.5 | – | –
Vero E6 [8], 1000 nM | – | – | 97.6 | – | –
Vero E6 [8], 10000 nM | – | – | -0.2 | – | –
[5], 0.1 µM | – | 102 | – | – | –
[5], 0.3 µM | – | 93 | – | – | –
[5], 1 µM | – | 111 | – | – | –
[5], 3 µM | – | 109 | – | – | –
[11], 0.1 µM | 101 | – | – | – | –
[11], 0.3 µM | 104 | – | – | – | –
[11], 1 µM | 62 | – | – | – | –
[11], 3 µM | 19 | – | – | – | –
[17], 0.1 µM | – | – | – | -0.12 | –
[17], 0.3 µM | – | – | – | -0.2 | –
[17], 1 µM | – | – | – | 0.57 | –
[17], 3 µM | – | – | – | 0.49 | –

drug-induced phospholipidosis [%], A549-ACE2 [6]
Conditions | 0.3 µM | 0.833333 µM | 3.33333 µM | 6.66667 µM | 10 µM | 30 µM
24 h | -2.91 | 8.17 | 163 | 140 | 179 | 55.6
48 h | -0.02 | 5.69 | 114 | 107 | 125 | –
72 h | 0.998 | 5.79 | 108 | 91.2 | – | –

NCCC(Oc1ccc(C(F)(F)F)cc1)c1ccccc1 (stereo unspecified) [norfluoxetine]
Conditions | drug sensitivity score | relative viability EC50 [nM]
Caco-2 [4] | 1.5 | –
Calu-3 [18] | 3.4 | –
HepG2 [1] | 4.7 | –
U2OS [3] | 0 | –
U2OS [15] | – | > 10000
Vero E6 [2] | 0.7 | –
Vero E6 [14] | – | > 10000

Conditions | SARS-CoV-2 infection rate [%] | cell count [%] | cell viability [%] | morphology score | phospholipidosis EC50 [nM]
A549-ACE2 [12], 24 h | – | – | – | – | 6780
A549-ACE2 [12], 48 h | – | – | – | – | 5960
A549-ACE2 [12], 72 h | – | – | – | – | 10700
Caco-2 [10], 1 nM | – | – | 90 | – | –
Caco-2 [10], 10 nM | – | – | 104 | – | –
Caco-2 [10], 100 nM | – | – | 104 | – | –
Caco-2 [10], 1000 nM | – | – | 103 | – | –
Caco-2 [10], 10000 nM | – | – | 63.3 | – | –
Calu-3 [19], 1 nM | – | – | 96.4 | – | –
Calu-3 [19], 10 nM | – | – | 108 | – | –
Calu-3 [19], 100 nM | – | – | 100 | – | –
Calu-3 [19], 1000 nM | – | – | 93.6 | – | –
Calu-3 [19], 10000 nM | – | – | 54.3 | – | –
HepG2 [7], 1 nM | – | – | 93.6 | – | –
HepG2 [7], 10 nM | – | – | 92.5 | – | –
HepG2 [7], 100 nM | – | – | 107 | – | –
HepG2 [7], 1000 nM | – | – | 73.7 | – | –
HepG2 [7], 10000 nM | – | – | 64.7 | – | –
U2OS [9], 1 nM | – | – | 96.9 | – | –
U2OS [9], 10 nM | – | – | 102 | – | –
U2OS [9], 100 nM | – | – | 108 | – | –
U2OS [9], 1000 nM | – | – | 102 | – | –
U2OS [9], 10000 nM | – | – | 90.9 | – | –
Vero E6 [8], 1 nM | – | – | 106 | – | –
Vero E6 [8], 10 nM | – | – | 94.5 | – | –
Vero E6 [8], 100 nM | – | – | 99.8 | – | –
Vero E6 [8], 1000 nM | – | – | 95.7 | – | –
Vero E6 [8], 10000 nM | – | – | 84.4 | – | –
[5], 0.3 µM | – | 99 | – | – | –
[5], 3 µM | – | 103 | – | – | –
[5], 10 µM | – | 128 | – | – | –
[5], 30 µM | – | 73 | – | – | –
[11], 0.3 µM | 99 | – | – | – | –
[11], 3 µM | 84 | – | – | – | –
[11], 10 µM | 17 | – | – | – | –
[11], 30 µM | 46 | – | – | – | –
[17], 0.3 µM | – | – | – | 0.13 | –
[17], 3 µM | – | – | – | 0.26 | –
[17], 10 µM | – | – | – | 0.86 | –
[17], 30 µM | – | – | – | 0 | –

drug-induced phospholipidosis [%], A549-ACE2 [6]
Conditions | 0.3 µM | 0.833333 µM | 3.33333 µM | 6.66667 µM | 10 µM | 30 µM
24 h | -1.03 | -3.68 | 19.4 | 73 | 85.6 | 130
48 h | 1.11 | -2.85 | 18.7 | 79.1 | 101 | 132
72 h | 2.19 | -3.51 | 8.94 | 50.5 | 78.9 | 153

CC[C@@H](C(=O)[C@@H](C)[C@@H](O)[C@H](C)[C@@H]1O[C@@H]([C@@H](CC)C(=O)O)CC[C@@H]1C)[C@H]1O[C@]2(C=C[C@@H](O)[C@]3(CC[C@@](C)([C@H]4CC[C@](O)(CC)[C@H](C)O4)O3)O2)[C@H](C)C[C@@H]1C [Salinomycin (Procoxacin)]
Conditions | drug sensitivity score | relative viability EC50 [nM]
Caco-2 [4] | 15.4 | –
Caco-2 [16] | – | 224
Calu-3 [18] | 11.6 | –
Calu-3 [20] | – | 360
HepG2 [1] | 11.6 | –
HepG2 [13] | – | 513
U2OS [3] | 7.8 | –
U2OS [15] | – | 1230
Vero E6 [2] | 6.7 | –
Vero E6 [14] | – | 939

Conditions | SARS-CoV-2 infection rate, [11] [%] | cell count, [5] [%] | cell viability, Caco-2 [10] [%] | cell viability, Calu-3 [19] [%] | cell viability, HepG2 [7] [%] | cell viability, U2OS [9] [%] | cell viability, Vero E6 [8] [%] | morphology score, [17]
1 nM | – | – | 100 | 87.9 | 121 | 100 | 109 | –
10 nM | – | – | 98.7 | 91.4 | 108 | 105 | 103 | –
100 nM | – | – | 69.5 | 80.6 | 103 | 89.2 | 104 | –
0.3 µM | 28 | 118 | – | – | – | – | – | 0.84
1000 nM | – | – | 38.3 | 53.1 | 36.6 | 68.7 | 70.1 | –
3 µM | 19 | 110 | – | – | – | – | – | 0.8
10 µM | 26 | 116 | – | – | – | – | – | 0.51
10000 nM | – | – | 17.3 | 26.5 | 25.3 | 22.6 | 44.7 | –
30 µM | 54 | 101 | – | – | – | – | – | 0

drug-induced phospholipidosis [%], A549-ACE2 [6]
Conditions | 0.3 µM | 0.833333 µM | 3.33333 µM | 6.66667 µM | 10 µM | 30 µM
24 h | 2.06 | -1.22 | -9.27 | 4.33 | 16.4 | 32
48 h | 3.07 | -6.1 | -3.84 | 10.2 | – | –
72 h | 12.7 | – | – | – | – | –
